From patent US7235267B1, “Brain cell or nerve cell-protecting agents comprising medicinal ginseng” (priority 1999, dated 2007)

Test system: co-cultures of nerve cells (neurons) and oligodendrocytes
Experiment: Co-culture of nerve cells and oligodendrocytes, Western blotting of MAP2 and CNPase
Type: cell-based, rat
Excerpt: As generally known, in myelinated nerve fibers within brain and nervous tissues, oligodendrocytes form myelin by ensheathing axons of neurons repeatedly. Further, in unmyelinated nerve fibers, processes of oligodendrocytes surround axons of neurons only once. In the brain and nervous tissues, nerve cells (neurons) and oligodendrocytes are at any time holding close positional relationship. The present inventors performed co-cultures of nerve cells and oligodendrocytes to investigate whether or not ginsenoside Rb1 promotes survival of both cells. For that purpose, nerve cells (neurons) were isolated from cerebral cortices of fetal rats at gestational day 17. The mixed brain cell culture was initiated to isolate oligodendrocytes by using the forebrain of newborn rats. Fifty thousands of oligodendrocytes and 500,000 nerve cells were cocultured. To this culture system was added 1 fg/ml to 10 pg/ml ginsenoside Rb1 in DMEM containing 1% fetal calf serum, and the mixed cells were cultured for 5 days. Subsequently, samples for electrophoresis were prepared and contents of the neuron-specific protein MAP2 (microtubule-associated protein 2) and the oligodendrocyte-specific protein CNPase (cyclic nucleotide […]) in the culture well were assayed by means of Western blotting. […]

## CC(C)=CCC[C@](C)(O[C@@H]1O[C@H](CO[C@@H]2O[C@H](CO)[C@@H](O)[C@H](O)[C@H]2O)[C@@H](O)[C@H](O)[C@H]1O)[C@H]1CC[C@]2(C)[C@@H]1[C@H](O)C[C@@H]1[C@@]3(C)CC[C@H](O[C@@H]4O[C@H](CO)[C@@H](O)[C@H](O)[C@H]4O[C@@H]4O[C@H](CO)[C@@H](O)[C@H](O)[C@H]4O)C(C)(C)[C@@H]3CC[C@]12C [ginsenoside Rb1]
1 fg/ml to 100 fg/ml, 5 days, vs non-added and 10^4 fg/ml groups
  band of MAP2 and band of CNPase (survival of nerve cells and oligodendrocytes): obviously intense
FIG. 22
  concentrations that made intense the MAP2 and CNPase bands: 1 to 100 fg/mL
